Assay results taken from patent US20220193171A1, “PHARMACEUTICAL COMPOSITION COMPRISING MIXTURE EXTRACT OF COPTIS RHIZOME AND SCHIZONEPETA TENUIFOLIA AS ACTIVE INGREDIENT FOR PREVENTION OR TREATMENT OF INFLAMMATORY BOWEL DISEASE” (HELIXMITH CO., LTD, priority 2019, published 2022).

How the values were obtained:
[1] = tested on: DNBS-induced enteritis model; assay: Effects of single herbal extracts on DNBS-induced enteritis model (Example 3); format: in vivo, mice (C57BL/6); details: 5-ASA 25 mg/kg orally once/day for 5 days; DNBS rectal
Procedure: After 8-week-old male mice (C57BL/6) were acclimated for one week or longer, the mice were classified into: a normal group; a DNBS and distilled water administration group in which dinitrobenzene sulfonic acid (DNBS; Sigma-Aldrich, USA) was administered to induce inflammatory bowel disease and then distilled water was administered (negative control); a DNBS and 5-ASA administration group (positive control group); and groups in which DNBS and extracts of 11 kinds of herbs (Terminaliae Fructus, Selaginellae Herba, Schizonepeta tenuifolia Briquet, Geranii Herba, Psoraleae Semen, Thujae Orientalis Folium, Coptis Rhizome, Galla Rhois, Ailanthi Radicis Cortex, Puerariae Radix, and Liriopis Tuber) selected in Example 2 (experimental groups).
The DNBS-induced enteritis model is known to be closely related with human Crohn's disease in that T cell-mediated immune response is induced. DNBS in 50% ethanol/distilled water at 40 mg/mL was prepared, and 0.1 mL was slowly injected into the rectum of the mouse by using a catheter. 5-ASA, used as a drug for the positive control group, was diluted in drinking water to 25 mg/kg, and administered orally once/day for 5 days from the start date of the experiment. […]
On the last day of the experiment, the mice were sacrificed with carbon dioxide gas, and the colon site was excised, and the colon length was measured.

[2] = tested on: IL-23; assay: Quantitative PCR of IL-23 expression in colon of DSS-induced colitis mice (Example 6); format: in vivo, mouse; details: relative value vs normal group, GAPDH standard; colon RNA; 5-ASA 25 mg/kg orally
Procedure: (§1) RNA was isolated from the colon of the mice collected in Example 5 by using TRIzol (Invitrogen, USA). Thereafter, quantitative PCR through primers specific to the inflammatory factors TNF-α, IL-1β, IL-17, IL-23, CCL2, and MIP-2, and SYBR green (Takara, Japan) was performed using cDNA obtained by performing RT-PCR. The expression levels of RNA obtained therefrom were expressed as a relative change compared with the untreated group (normal group) by using GAPDH mRNA as the standard gene. The experimental results are shown in Tables 11 to 16 below and FIGS. 8 to 13.

[3] = tested on: TNF-α; assay: Quantitative PCR of TNF-α expression in colon of DSS-induced colitis mice (Example 6); format: in vivo, mouse; details: relative value vs normal group, GAPDH standard; colon RNA; 5-ASA 25 mg/kg orally
Procedure: as §1

[4] = tested on: DSS-induced enteritis model; assay: Effects of single herbal extracts in DSS-induced enteritis model (Example 2); format: in vivo, mice (C57BL/6); details: 5-ASA 25 mg/kg orally once/day for 14 days; 2.5% DSS 5 days
Procedure: After 8-week-old male mice (C57BL/6) were acclimated for one week or longer, the mice were classified into: a normal group; a DSS and distilled water administration group in which Dextran Sulfate Sodium (DSS; 36,000-50,000 MW, MP Biomedicals, USA) was administered to induce ulcerative colitis and then distilled water was administered (negative control); a DSS and 5-aminosalicylic acid (5-ASA; Tokyo Chemical Industry Co., Japan) administration group (positive control group); and groups in which DSS and respective single herbal extracts prepared in Example 1 were administered (experimental groups).
(§2) The DSS-induced enteritis model has been known to show similar morphological changes and symptoms to human ulcerative colitis. The mice were fed 100 mL of DSS diluted in drinking water to 2.5%, which was then changed every two days. After the induction by DSS for 5 days, drinking water was changed.
(§3) 5-ASA, used as a drug for the positive control group, was diluted in drinking water to 25 mg/kg, and administered orally once/day for 14 days from the start date of the experiment. Each single herbal extract was orally administered at a dose of 100 mg/kg once/day for 14 days from the start date of the experiment.
The mice of each group were weighed to calculate weight loss rates, and the feces state and the presence of bloody feces were checked, every day after the start of the experiment. Scoring was conducted for the three indicators according to the standards in Table 2 below.
Disease activity index (DAI), which is the sum calculated according to the scoring standards on Table 2 above, is shown in Table 3 below and FIG. 1.
On the last day of the experiment, the mice were sacrificed with carbon dioxide gas, and the colon site was excised. The colon length was measured from the excised colon, and then the state of the intestinal mucosa was investigated by incision in the longitudinal direction.
The histological colitis score was calculated by measuring the lengths of the mucosal ulcer site and the damaged mucosal layer in the colon tissue and averaging the values.

[5] = tested on: MIP-2; assay: Quantitative PCR of MIP-2 expression in colon of DSS-induced colitis mice (Example 6); format: in vivo, mouse; details: relative value vs normal group, GAPDH standard; colon RNA; 5-ASA 25 mg/kg orally
Procedure: as §1

[6] = tested on: IL-17; assay: Quantitative PCR of IL-17 expression in colon of DSS-induced colitis mice (Example 6); format: in vivo, mouse; details: relative value vs normal group, GAPDH standard; colon RNA; 5-ASA 25 mg/kg orally
Procedure: as §1

[7] = tested on: DSS-induced colitis mice; assay: Comparison of single extracts and mixed extracts in DSS-induced colitis mice (Example 5); format: in vivo, mice (C57BL/6); details: 5-ASA 25 mg/kg orally; 2.5% DSS 5 days
Procedure: After 8-week-old male mice (C57BL/6) were acclimated for one week or longer, the mice were classified into: a normal group; a DSS administration group, a DSS and distilled water administration group (negative control); a DSS and 5-ASA administration group (positive control group); and a group administered DSS and Coptis Rhizome 100 mg/kg, a group administered DSS and Schizonepeta tenuifolia Briquet 10 mg/kg, and a group administered DSS, Coptis Rhizome 100 mg/kg, and Schizonepeta tenuifolia Briquet 10 mg/kg (mixed extract administration group). The mice were fed 100 mL of DSS diluted in drinking water to 2.5%, which was then changed every two days. After DSS administration for 5 days, drinking water was changed. 5-ASA, used as a drug for the positive control group, was diluted in drinking water to 25 mg/kg, and orally administered. Coptis Rhizome 100 mg/kg, Schizonepeta tenuifolia Briquet 10 mg/kg, and a 10:1 mixture of Coptis Rhizome and Schizonepeta tenuifolia Briquet at a dose of 110 mg/kg were orally administered once/day for 14 days, and the body weight change rate, feces state, and the presence of bloody feces were checked every day.

[8] = tested on: DSS-induced colitis mice; assay: Effects of single herbal extracts with different concentration in DSS-induced colitis mice (Example 4); format: in vivo, mice (C57BL/6); details: 5-ASA 25 mg/kg orally; 2.5% DSS 6 days
Procedure: After 8-week-old male mice (C57BL/6) were acclimated for one week or longer, the mice were classified into: a normal group; a DSS and distilled water administration group (negative control); a DSS and 5-ASA administration group (positive control group); and groups in which DSS and extracts of four kinds of herbs (Coptis Rhizome, […] Herba, Schizonepeta tenuifolia Briquet, and […] Herba) selected in Example 1 (experimental groups). The mice were fed 100 mL of DSS diluted in drinking water to 2.5%, which was then changed every two days. To evaluate the effects of single herbal extracts with different concentrations, DSS was administered for a total of 6 days, and then drinking water was changed. 5-ASA was distilled in drinking water to 25 mg/kg and orally administered. Each single herbal extract was orally administered at doses of 10, 30, and 100 mg/kg once/day for 14 days from the start date of the experiment, and the body weight change, feces state, and the presence of bloody feces were checked every day. In addition, DAI scores were calculated based on the results of the body weight change, feces state, and the presence of bloody feces, and the results are shown in Table 9 below and FIG. 6.

[9] = tested on: DSS-induced enteritis model; assay: Effects of single and mixed herbal extracts on DSS-induced enteritis model (Example 11); format: in vivo, mice (C57BL/6); details: 5-ASA 25 mg/kg orally once/day for 10 days; 2.5% DSS 5 days
Procedure: After 8-week-old male mice (C57BL/6) were acclimated for one week or longer, the mice were classified into: a normal group;
a DSS and distilled water administration group in which Dextran Sulfate Sodium (DSS; 36,000-50,000 MW, MP Biomedicals, USA) was administered to induce ulcerative colitis and then distilled water was administered (negative control); a DSS and 5-aminosalicylic acid (5-ASA; Tokyo Chemical Industry Co., Japan) administration group (positive control group); and groups in which together with DSS, Coptis Rhizome and Schizonepeta tenuifolia Briquet extracts prepared in Example 1 and mixed herbal extracts prepared in Example 7 were administered (experimental groups).
as §2
as §3, with “10” for “14”, “mixed” for “single”, “50” for “100”
The mice of each group were weighed to calculate weight loss rates every day after the start of the experiment.
In addition, DAI scores were calculated based on the results of the body weight change, feces state, and the presence of bloody feces, and the results are shown in Table 23 below and FIG. 17.
On the last day of the experiment, the mice were sacrificed with carbon dioxide gas, and the colon site was excised.

[10] = tested on: IL-1β; assay: Quantitative PCR of IL-1β expression in colon of DSS-induced colitis mice (Example 6); format: in vivo, mouse; details: relative value vs normal group, GAPDH standard; colon RNA; 5-ASA 25 mg/kg orally
Procedure: as §1

[11] = tested on: CCL2; assay: Quantitative PCR of CCL2 expression in colon of DSS-induced colitis mice (Example 6); format: in vivo, mouse; details: relative value vs normal group, GAPDH standard; colon RNA; 5-ASA 25 mg/kg orally
Procedure: as §1

Nc1ccc(O)c(C(=O)O)c1 [Positive control, 5-aminosalicylic acid]
Colon length (cm) [1]: 7.10 cm | Survival rate (%) [1]: 60% | IL-23 expression level [2]: 1.65 | TNF-α expression level [3]: 2.16 | Colon length (cm) [4]: 5.6 cm | DAI score of Day 10 [4]: 2.4 | Histological colitis score [4]: 1.00 | MIP-2 expression level [5]: 1.86 | IL-17 expression level [6]: 1.77 | DAI score of Day 10 [7]: 2.8 | Body weight change rate for 14 days (%) [8]: −19.38% | DAI score of Day 10 [8]: 4.8 | Body weight change rate for 10 days (%) [9]: −11.66% | Colon length (cm) [9]: 7.04 cm | DAI score of DAY 10 [9]: 4.8 | IL-1β expression level [10]: 2.28 | CCL2 expression level [11]: 3.26
